Measured values from US20240287076A1, “COMPOUNDS FOR TARGETING DEGRADATION OF BRUTON'S TYROSINE KINASE” (BIOGEN MA INC., priority 2021, published 2024).

What follows are compounds tested against T1, BTK (Homo sapiens, UniProt Q06187) (assay: BTK degradation assay using the HiBiT Method (Nano-Glo HiBiT Lytic Assay, GM01501.3 cells)). Details: HiBiT Degradation on GM01501.3 BTK @ 6 hours.
T1 construct: The GM01501.3 cell line endogenously expresses BTK with a HiBiT fusion tag via CRISPR knock-in at its C-terminal region; endogenous in cells; host or cells: GM01501.3 (GM01501 cells engineered by CRISPR knock-in of HiBiT at the BTK locus)
Format: cell-based
Method in brief: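 CRISPR knock-in GM01501.3 cells expressing endogenous BTK with C-terminal HiBiT tag, treated 6 h at 37 °C with compounds, 11-point half-log titration from 10 μM top, duplicates. Remaining BTK quantified by Nano-Glo HiBiT lytic luminescence versus DMSO controls; DC50 reported.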

T1 sequence (Q06187 whole entry, the tested form may be a part): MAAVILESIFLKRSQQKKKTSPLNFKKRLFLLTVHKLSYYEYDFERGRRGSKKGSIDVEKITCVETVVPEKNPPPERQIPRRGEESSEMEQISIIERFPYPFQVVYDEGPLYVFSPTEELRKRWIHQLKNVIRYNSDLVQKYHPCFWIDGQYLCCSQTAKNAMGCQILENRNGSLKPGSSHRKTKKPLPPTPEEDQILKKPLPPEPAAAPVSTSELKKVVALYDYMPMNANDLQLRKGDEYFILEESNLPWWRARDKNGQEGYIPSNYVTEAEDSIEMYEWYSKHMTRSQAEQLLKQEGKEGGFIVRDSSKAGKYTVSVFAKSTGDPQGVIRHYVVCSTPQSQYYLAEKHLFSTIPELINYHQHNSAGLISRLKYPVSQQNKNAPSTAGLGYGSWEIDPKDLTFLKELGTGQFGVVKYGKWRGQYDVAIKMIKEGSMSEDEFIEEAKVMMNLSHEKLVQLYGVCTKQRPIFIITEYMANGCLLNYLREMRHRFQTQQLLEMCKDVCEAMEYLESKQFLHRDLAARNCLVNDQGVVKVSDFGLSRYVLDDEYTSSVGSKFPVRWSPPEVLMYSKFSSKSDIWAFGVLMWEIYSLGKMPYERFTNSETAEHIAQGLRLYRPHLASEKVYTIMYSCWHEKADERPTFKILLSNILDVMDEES

DC50, < 100 nM:
CC(C)(C)c1nc(C(=O)NCc2ccc(-c3ncnn4cc(-c5ccc(CN6CCC(c7ccc(NC8CCC(=O)NC8=O)cc7)CC6)cc5)cc34)cc2Cl)no1 (stereo not drawn) [Example 48, 5-tert-butyl-N-[[2-chloro-4-[6-[4-[[4-[4-[(2,6-dioxo-3-piperidyl)amino]phenyl]-1-piperidyl]methyl]phenyl]pyrrolo[2,1-f][1,2,4]triazin-4-yl]phenyl]methyl]-1,2,4-oxadiazole-3-carboxamide]
CC(C)(C)c1nc(C(=O)NCc2cc(F)c(-c3ncnn4cc(-c5ccc(CN6CCC(c7ccc(NC8CCC(=O)NC8=O)cc7)CC6)cc5)cc34)cc2Cl)no1 (stereo not drawn) [Example 49, 5-tert-butyl-N-[[2-chloro-4-[6-[4-[[4-[4-[(2,6-dioxo-3-piperidyl)amino]phenyl]-1-piperidyl]methyl]phenyl]pyrrolo[2,1-f][1,2,4]triazin-4-yl]-5-fluoro-phenyl]methyl]-1,2,4-oxadiazole-3-carboxamide]
Cc1cc(-c2ncnn3cc(-c4cccc(CN5CCC(c6ccc(NC7CCC(=O)NC7=O)cc6)CC5)c4)cc23)ccc1CNC(=O)c1noc(C(C)(C)C)n1 (stereo not drawn) [Example 50, 5-tert-butyl-N-[[4-[6-[3-[[4-[4-[(2,6-dioxo-3-piperidyl)amino]phenyl]-1-piperidyl]methyl]phenyl]pyrrolo[2,1-f][1,2,4]triazin-4-yl]-2-methyl-phenyl]methyl]-1,2,4-oxadiazole-3-carboxamide]
Cc1cc(-c2ncnn3cc(-c4ccc(CCN5CCC(c6ccc(C7CCC(=O)NC7=O)cc6)C(F)(F)C5)cc4)cc23)ccc1CNC(=O)c1noc(C(C)(C)C)n1 (stereo not drawn) [Example 51, 5-tert-butyl-N-[[4-[6-[4-[2-[4-[4-(2,6-dioxo-3-piperidyl)phenyl]-3,3-difluoro-1-piperidyl]ethyl]phenyl]pyrrolo[2,1-f][1,2,4]triazin-4-yl]-2-methyl-phenyl]methyl]-1,2,4-oxadiazole-3-carboxamide]
Cc1cc(-c2ncnn3cc(-c4ccc(CCN5CCC(c6ccc(C7CCC(=O)NC7=O)cc6)CC5)cc4)cc23)ccc1CNC(=O)c1noc(C(C)(C)C)n1 (stereo not drawn) [Example 52, 5-tert-butyl-N-[[4-[6-[4-[2-[4-[4-(2,6-dioxo-3-piperidyl)phenyl]-1-piperidyl]ethyl]phenyl]pyrrolo[2,1-f][1,2,4]triazin-4-yl]-2-methyl-phenyl]methyl]-1,2,4-oxadiazole-3-carboxamide]
Cc1cc(-c2ncnn3cc(-c4ccc(CCN5CCC(c6ccc(NC7CCC(=O)NC7=O)cc6)CC5)cc4)cc23)ccc1CNC(=O)c1noc(C(C)(C)C)n1 (stereo not drawn) [Example 53, 5-tert-butyl-N-[[4-[6-[4-[2-[4-[4-[(2,6-dioxo-3-piperidyl)amino]phenyl]-1-piperidyl]ethyl]phenyl]pyrrolo[2,1-f][1,2,4]triazin-4-yl]-2-methyl-phenyl]methyl]-1,2,4-oxadiazole-3-carboxamide]
Cc1cc(-c2ncnn3cc(-c4cccc(CCN5CCC(c6ccc(NC7CCC(=O)NC7=O)cc6)CC5)c4)cc23)ccc1CNC(=O)c1noc(C(C)(C)C)n1 (stereo not drawn) [Example 54, 5-tert-butyl-N-[[4-[6-[3-[2-[4-[4-[(2,6-dioxo-3-piperidyl)amino]phenyl]-1-piperidyl]ethyl]phenyl]pyrrolo[2,1-f][1,2,4]triazin-4-yl]-2-methyl-phenyl]methyl]-1,2,4-oxadiazole-3-carboxamide]
Cc1cc(-c2ncnn3cc(-c4ccc5c(c4)CN(CCc4ccc(NC6CCC(=O)NC6=O)cc4)C5)cc23)ccc1CNC(=O)c1noc(C(C)(C)C)n1 (stereo not drawn) [Example 55, 5-tert-butyl-N-[[4-[6-[2-[2-[4-[(2,6-dioxo-3-piperidyl)amino]phenyl]ethyl]isoindolin-5-yl]pyrrolo[2,1-f][1,2,4]triazin-4-yl]-2-methyl-phenyl]methyl]-1,2,4-oxadiazole-3-carboxamide]
Cc1cc(-c2ncnn3cc(-c4ccc5c(c4)CCN(CCc4ccc(NC6CCC(=O)NC6=O)cc4)C5)cc23)ccc1CNC(=O)c1noc(C(C)(C)C)n1 (stereo not drawn) [Example 56, 5-tert-butyl-N-[[4-[6-[2-[2-[4-[(2,6-dioxo-3-piperidyl)amino]phenyl]ethyl]-3,4-dihydro-1H-isoquinolin-6-yl]pyrrolo[2,1-f][1,2,4]triazin-4-yl]-2-methyl-phenyl]methyl]-1,2,4-oxadiazole-3-carboxamide]
Cc1cc(-c2ncnn3cc(-c4ccc5c(c4)CN(CCCc4ccc(NC6CCC(=O)NC6=O)cc4)C5)cc23)ccc1CNC(=O)c1noc(C(C)(C)C)n1 (stereo not drawn) [Example 57, 5-tert-butyl-N-[[4-[6-[2-[3-[4-[(2,6-dioxo-3-piperidyl)amino]phenyl]propyl]isoindolin-5-yl]pyrrolo[2,1-f][1,2,4]triazin-4-yl]-2-methyl-phenyl]methyl]-1,2,4-oxadiazole-3-carboxamide]
Cc1cc(-c2ncnn3cc(-c4ccc5c(c4)CCN(CCCc4ccc(NC6CCC(=O)NC6=O)cc4)C5)cc23)ccc1CNC(=O)c1noc(C(C)(C)C)n1 (stereo not drawn) [Example 58, 5-tert-butyl-N-[[4-[6-[2-[3-[4-[(2,6-dioxo-3-piperidyl)amino]phenyl]propyl]-3,4-dihydro-1H-isoquinolin-6-yl]pyrrolo[2,1-f][1,2,4]triazin-4-yl]-2-methyl-phenyl]methyl]-1,2,4-oxadiazole-3-carboxamide]
Cc1cc(-c2ncnn3cc(-c4ccc5c(c4)CN(CCCc4ccc(NC6CCC(=O)NC6=O)cc4)CC5)cc23)ccc1CNC(=O)c1noc(C(C)(C)C)n1 (stereo not drawn) [Example 59, 5-tert-butyl-N-[[4-[6-[2-[3-[4-[(2,6-dioxo-3-piperidyl)amino]phenyl]propyl]-3,4-dihydro-1H-isoquinolin-7-yl]pyrrolo[2,1-f][1,2,4]triazin-4-yl]-2-methyl-phenyl]methyl]-1,2,4-oxadiazole-3-carboxamide]
Cc1cc(-c2ncnn3cc(-c4ccc5c(c4)CN(CCc4ccc(NC6CCC(=O)NC6=O)cc4)CC5)cc23)ccc1CNC(=O)c1noc(C(C)(C)C)n1 (stereo not drawn) [Example 60, 5-tert-butyl-N-[[4-[6-[2-[2-[4-[(2,6-dioxo-3-piperidyl)amino]phenyl]ethyl]-3,4-dihydro-1H-isoquinolin-7-yl]pyrrolo[2,1-f] [1,2,4]triazin-4-yl]-2-imethyl-phenyl]methyl]-1,2,4-oxadiazole-3-carboxamide]
Cc1cc(-c2ncnn3cc(-c4ccc(CN5CCC(c6ccc(NC7CCC(=O)NC7=O)cc6)CC5)cc4)cc23)ccc1CNC(=O)c1ccc(C(F)F)cc1 (stereo not drawn) [Example 61, 4-(difluoromethyl)-N-[[4-[6-[4-[[4-[4-[(2,6-dioxo-3-piperidyl)amino]phenyl]-1-piperidyl]methyl]phenyl]pyrrolo[2,1-f][1,2,4]triazin-4-yl]-2-methyl-phenyl]methyl]benzamide]
Cc1cc(-c2ncnn3cc(-c4ccc(CN5CCC(c6ccc(NC7CCC(=O)NC7=O)cc6)CC5)cc4)cc23)ccc1CNC(=O)c1ccc(Cl)cc1 (stereo not drawn) [Example 62, 4-chloro-N-[[4-[6-[4-[[4-[4-[(2,6-dioxo-3-piperidyl)amino]phenyl]-1-piperidyl]methyl]phenyl]pyrrolo[2,1-f][1,2,4]triazin-4-yl]-2-methyl-phenyl]methyl]benzamide]
Cc1cc(-c2ncnn3cc(-c4ccc(CN5CCC(c6ccc(NC7CCC(=O)NC7=O)cc6)CC5)cc4)cc23)ccc1CNC(=O)c1ccc(C(F)(F)F)nc1 (stereo not drawn) [Example 63, N-[[4-[6-[4-[[4-[4-[(2,6-dioxo-3-piperidyl)amino]phenyl]-1-piperidyl]methyl]phenyl]pyrrolo[2,1-f][1,2,4]triazin-4-yl]-2-methyl-phenyl]methyl]-6-(trifluoromethyl)pyridine-3-carboxamide]
Cc1cc(-c2ncnn3cc(-c4ccc(CN5CCC(c6ccc(NC7CCC(=O)NC7=O)cc6)CC5)cc4)cc23)ccc1CNC(=O)c1ccc(F)cc1 (stereo not drawn) [Example 64, N-[[4-[6-[4-[[4-[4-[(2,6-dioxo-3-piperidyl)amino]phenyl]-1-piperidyl]methyl]phenyl]pyrrolo[2,1-f][1,2,4]triazin-4-yl]-2-methyl-phenyl]methyl]-4-fluoro-benzamide]
Cc1cc(-c2ncnn3cc(-c4ccc(CN5CCC(c6ccc(NC7CCC(=O)NC7=O)cc6)CC5)cc4)cc23)ccc1CNC(=O)c1ccc(F)c(F)c1 (stereo not drawn) [Example 65, N-[[4-[6-[4-[[4-[4-[(2,6-dioxo-3-piperidyl)amino]phenyl]-1-piperidyl]methyl]phenyl]pyrrolo[2,1-f][1,2,4]triazin-4-yl]-2-methyl-phenyl]methyl]-3,4-difluoro-benzamide]
COc1ccc(C(=O)NCc2ccc(-c3ncnn4cc(-c5ccc(CN6CCC(c7ccc(NC8CCC(=O)NC8=O)cc7)CC6)cc5)cc34)cc2C)cc1 (stereo not drawn) [Example 66, N-[[4-[6-[4-[[4-[4-[(2,6-dioxo-3-piperidyl)amino]phenyl]-1-piperidyl]methyl]phenyl]pyrrolo[2,1-f][1,2,4]triazin-4-yl]-2-methyl-phenyl]methyl]-4-methoxy-benzamide]
CCc1ccc(C(=O)NCc2ccc(-c3ncnn4cc(-c5ccc(CN6CCC(c7ccc(NC8CCC(=O)NC8=O)cc7)CC6)cc5)cc34)cc2C)cc1 (stereo not drawn) [Example 67, N-[[4-[6-[4-[[4-[4-[(2,6-dioxo-3-piperidyl)amino]phenyl]-1-piperidyl]methyl]phenyl]pyrrolo[2,1-f][1,2,4]triazin-4-yl]-2-methyl-phenyl]methyl]-4-ethyl-benzamide]
Cc1ccc(C(=O)NCc2ccc(-c3ncnn4cc(-c5ccc(CN6CCC(c7ccc(NC8CCC(=O)NC8=O)cc7)CC6)cc5)cc34)cc2C)cc1 (stereo not drawn) [Example 68, N-[[4-[6-[4-[[4-[4-[(2,6-dioxo-3-piperidyl)amino]phenyl]-1-piperidyl]methyl]phenyl]pyrrolo[2,1-f][1,2,4]triazin-4-yl]-2-methyl-phenyl]methyl]-4-methyl-benzamide]
